The test concerns the target KRas G12C (Homo sapiens, UniProt P01116, G12C). In words: Cellular inhibition of KRas G12C measured by Phospho-ERK in NCI-H358 cells. It is filed as cell-based. The following applies: pERK(Thr202/Tyr204) normalized with GAPDH, NCI-H358 cells, 3 hours; read-out: IC50. The method in brief:
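NCI-H358 cells treated 3 h with compound (0.5% DMSO final), then fixed and methanol-permeabilised. In-cell immunofluorescence measured pERK(Thr202/Tyr204) normalised to GAPDH as percent of DMSO control. IC50 from a 4-parameter dose-response fit.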
Chain of KRas G12C (P01116 1-188 isoform P01116-2 G12C): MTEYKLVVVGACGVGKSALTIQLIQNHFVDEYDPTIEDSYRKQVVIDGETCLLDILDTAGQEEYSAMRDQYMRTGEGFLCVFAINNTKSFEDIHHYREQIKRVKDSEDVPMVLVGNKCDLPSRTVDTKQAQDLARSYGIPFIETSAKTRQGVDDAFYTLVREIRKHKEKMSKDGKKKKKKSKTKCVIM
By IC50 is commonly meant the concentration at which inhibition is half-maximal. For `C=CC(=O)N1CCN(c2nc(OC[C@@H]3CCCN3C)nc3c2CCN(c2c(Cl)ccc4[nH]ncc24)C3)CC1` [Example 250, 1-[4-[7-(5-chloro-1H-indazol-4-yl)-2-[[(2S)-1-methylpyrrolidin-2-yl]methoxy]-6,8-dihydro-5H-pyrido[3,4-d]pyrimidin-4-yl]piperazin-1-yl]prop-2-en-1-one], the IC50 is over 1 µM.
The result for `C=CC(=O)N1CCN(c2nc(OCCN3CCC(OC)CC3)nc3c2CCN(c2cc(O)cc4ccccc24)C3)CC1` [Example 108, 1-(4-(7-(3-hydroxynaphthalen-1-yl)-2-(2-(4-methoxypiperidin-1-yl)ethoxy)-5,6,7,8-tetrahydropyrido[3,4-d]pyrimidin-4-yl)piperazin-1-yl)prop-2-en-1-one] reads 0.0001 to 1 µM; that for `C=CC(=O)N1CCN(c2nc(OC[C@@H]3CCCN3C)nc3c2CCN(c2cccc4ccccc24)C3)C[C@H]1C` [Example 201, 1-((R)-2-methyl-4-(2-(((S)-1-methylpyrrolidin-2-yl)methoxy)-7-(naphthalen-1-yl)-5,6,7,8-tetrahydropyrido[3,4-d]pyrimidin-4-yl)piperazin-1-yl)prop-2-en-1-one], over 1 µM; that for `C=CC(=O)N1CCN(c2nc(OC[C@@H]3CCCN3CCOC)nc3c2CCN(c2cc(O)cc4ccccc24)C3)CC1` [Example 144, (S)-1-(4-(7-(3-hydroxynaphthalen-1-yl)-2-((1-(2-methoxyethyl)pyrrolidin-2-yl)methoxy)-5,6,7,8-tetrahydropyrido[3,4-d]pyrimidin-4-yl)piperazin-1-yl)prop-2-en-1-one], 0.0001 to 1 µM.
`C=CC(=O)N1CCN(c2nc(OC[C@@H]3CCCN3C(C)C)nc3c2CCN(c2cccc4ccccc24)C3)CC1CC#N` (stereo partly drawn) [Example 285, 2-[4-[2-[[(2S)-1-isopropylpyrrolidin-2-yl]methoxy]-7-(1-naphthyl)-6,8-dihydro-5H-pyrido[3,4-d]pyrimidin-4-yl]-1-prop-2-enoyl-piperazin-2-yl]acetonitrile]: the half-maximal inhibitory concentration (IC50) lay in the range of 0.0001 to 1 µM.
The result for `C=CC(=O)N1CCN(c2nc(O[C@H](C)CN(C)C)nc3c2CCN(c2cc(O)ccc2OC)C3)CC1` [Example 94, (R)-1-(4-(2-((1-(dimethylamino)propan-2-yl)oxy)-7-(5-hydroxy-2-methoxyphenyl)-5,6,7,8-tetrahydropyrido[3,4-d]pyrimidin-4-yl)piperazin-1-yl)prop-2-en-1-one] reads over 1 µM; that for `C=CC(=O)N1CCN(c2nc(OC[C@@H]3C[C@@H](O)CN3C)nc3c2CCN(c2cccc4ccccc24)C3)CC1CC#N` (stereo partly drawn) [Example 218, 2-(1-acryloyl-4-(2-(((2S,4R)-4-hydroxy-1-methylpyrrolidin-2-yl)methoxy)-7-(naphthalen-1-yl)-5,6,7,8-tetrahydropyrido[3,4-d]pyrimidin-4-yl)piperazin-2-yl)acetonitrile], 0.0001 to 1 µM.
For the compound `C=CC(=O)N1CCN(c2nc(OC[C@@H]3C[C@@H](OC)CN3C)nc3c2CCN(c2cccc4ccccc24)C3)CC1CC#N` (stereo partly drawn) [Example 381, 2-(1-acryloyl-4-(2-(((2S,4R)-4-methoxy-1-methylpyrrolidin-2-yl)methoxy)-7-(naphthalen-1-yl)-5,6,7,8-tetrahydropyrido[3,4-d]pyrimidin-4-yl)piperazin-2-yl)acetonitrile], the IC50 lay within 0.0001 to 1 µM.
Under `C=CC(=O)N1CCN(c2nc(O[C@H](C)CN(C)C)nc3c2CCN(c2cc(O)c(Cl)c4ccccc24)C3)CC1` [Example 125, (R)-1-(4-(7-(4-chloro-3-hydroxynaphthalen-1-yl)-2-((1-(dimethylamino)propan-2-yl)oxy)-5,6,7,8-tetrahydropyrido[3,4-d]pyrimidin-4-yl)piperazin-1-yl)prop-2-en-1-one] stands over 1 µM; under `C=C(C(=O)N1CCN(c2nc(OC[C@@H]3CCCN3C)nc3c2CCN(c2cccc(C)c2C)C3)C[C@@H]1CC#N)C(F)(F)F` [Example 487, 2-((S)-4-(7-(2,3-dimethylphenyl)-2-(((S)-1-methylpyrrolidin-2-yl)methoxy)-5,6,7,8-tetrahydropyrido[3,4-d]pyrimidin-4-yl)-1-(2-(trifluoromethyl)acryloyl)piperazin-2-yl)acetonitrile], 0.0001 to 1 µM.
Under `C=CC(=O)N1CCN(c2nc(OCCN(C)C)nc3c2CCN(c2cc(O)cc4ccccc24)C3)CC1` [Example 9, 1-(4-(2-(2-(dimethylamino)ethoxy)-7-(3-hydroxynaphthalen-1-yl)-5,6,7,8-tetrahydropyrido[3,4-d]pyrimidin-4-yl)piperazin-1-yl)prop-2-en-1-one] stands over 1 µM; under `C=CC(=O)N1CCN(c2nc(OC3CCN(C4CC4)CC3)nc3c2CCN(c2cc(O)cc4ccccc24)C3)CC1` [Example 100, 1-(4-(2-((1-cyclopropylpiperidin-4-yl)oxy)-7-(3-hydroxynaphthalen-1-yl)-5,6,7,8-tetrahydropyrido[3,4-d]pyrimidin-4-yl)piperazin-1-yl)prop-2-en-1-one], over 1 µM.
With `C=CC(=O)N1CCN(c2nc(OC[C@@H]3C[C@@H](O)CN3C)nc3c2CCN(c2ccccc2C(F)(F)F)C3)CC1CC#N` (stereo partly drawn) [Example 312, 2-[4-[2-[[(2S,4R)-4-hydroxy-1-methyl-pyrrolidin-2-yl]methoxy]-7-[2-(trifluoromethyl)phenyl]-6,8-dihydro-5H-pyrido[3,4-d]pyrimidin-4-yl]-1-prop-2-enoyl-piperazin-2-yl]acetonitrile], the IC50 lay in the range of 0.0001 to 1 µM.
Regarding `C=CC(=O)N1CCN(c2nc(OC[C@@H]3CCN(C)C3)nc3c2CCN(c2cc(O)cc4ccccc24)C3)CC1` [Example 110, (R)-1-(4-(7-(3-hydroxynaphthalen-1-yl)-2-((1-methylpyrrolidin-3-yl)methoxy)-5,6,7,8-tetrahydropyrido[3,4-d]pyrimidin-4-yl)piperazin-1-yl)prop-2-en-1-one], the IC50 is 0.0001 to 1 µM.
As for `C=CC(=O)N1CCN(c2nc(OCC(O)CN3CCOCC3)nc3c2CCN(c2cc(O)cc4ccccc24)C3)CC1` (stereo not drawn) [Example 123, 1-(4-(2-(2-hydroxy-3-morpholinopropoxy)-7-(3-hydroxynaphthalen-1-yl)-5,6,7,8-tetrahydropyrido[3,4-d]pyrimidin-4-yl)piperazin-1-yl)prop-2-en-1-one], the IC50 is over 1 µM.
The result for `C=CC(=O)N1CCN(c2nc(O[C@H]3CCCN(C)C3)nc3c2CCN(c2cc(O)cc4ccccc24)C3)CC1` [Example 66, (S)-1-(4-(7-(3-hydroxynaphthalen-1-yl)-2-((1-methylpiperidin-3-yl)oxy)-5,6,7,8-tetrahydropyrido[3,4-d]pyrimidin-4-yl)piperazin-1-yl)prop-2-en-1-one] reads over 1 µM.
For the compound `C=CC(=O)N1CCN(c2nc(OCC3CCN(Cc4ccccc4)C3)nc3c2CCN(c2cc(O)cc4ccccc24)C3)CC1` (stereo not drawn) [Example 189, 1-(4-(2-((1-benzylpyrrolidin-3-yl)methoxy)-7-(3-hydroxynaphthalen-1-yl)-5,6,7,8-tetrahydropyrido[3,4-d]pyrimidin-4-yl)piperazin-1-yl)prop-2-en-1-one], the half-inhibitory concentration (IC50) was over 1 µM.
The result for `Cc1cccc(N2CCc3c(nc(OC[C@@H]4CCCN4C)nc3N3CCN(C(=O)/C=C\Cl)[C@@H](CC#N)C3)C2)c1C` [Example 505, 2-((S)-1-((Z)-3-chloroacryloyl)-4-(7-(2,3-dimethylphenyl)-2-(((S)-1-methylpyrrolidin-2-yl)methoxy)-5,6,7,8-tetrahydropyrido[3,4-d]pyrimidin-4-yl)piperazin-2-yl)acetonitrile] reads over 1 µM; that for `C=CC(=O)N1CCN(c2nc(N3CC(N(C)C)C3)nc3c2CCN(c2cc(O)cc4ccccc24)C3)CC1` [Example 128, 1-(4-(2-(3-(dimethylamino)azetidin-1-yl)-7-(3-hydroxynaphthalen-1-yl)-5,6,7,8-tetrahydropyrido[3,4-d]pyrimidin-4-yl)piperazin-1-yl)prop-2-en-1-one], over 1 µM; that for `C=CC(=O)N1CCN(c2nc(OC[C@H]3CCC(=O)N3)nc3c2CCN(c2cc(O)cc4ccccc24)C3)CC1` [Example 58, (R)-5-(((4-(4-acryloylpiperazin-1-yl)-7-(3-hydroxynaphthalen-1-yl)-5,6,7,8-tetrahydropyrido[3,4-d]pyrimidin-2-yl)oxy)methyl)pyrrolidin-2-one], over 1 µM.
`C=CC(=O)N1CCN(c2nc(OC[C@@H]3CCCN3C)nc3c2CCN(c2cccc4ccccc24)C3)[C@@H](C#N)C1` [Example 465, (R)-4-acryloyl-1-(2-(((S)-1-methylpyrrolidin-2-yl)methoxy)-7-(naphthalen-1-yl)-5,6,7,8-tetrahydropyrido[3,4-d]pyrimidin-4-yl)piperazine-2-carbonitrile]: the IC50 is over 1 µM.
Take `C=CC(=O)N1CCN(c2nc(OC[C@@H]3C[C@@H](OC)CN3CC)nc3c2CCN(c2cccc(Cl)c2C(F)(F)F)C3)C[C@@H]1CC#N` [Example 335, 2-[(2S)-4-[7-[3-chloro-2-(trifluoromethyl)phenyl]-2-[[(2S,4R)-1-ethyl-4-methoxy-pyrrolidin-2-yl]methoxy]-6,8-dihydro-5H-pyrido[3,4-d]pyrimidin-4-yl]-1-prop-2-enoyl-piperazin-2-yl]acetonitrile]: the half-inhibitory concentration (IC50) lay in the range of 0.0001 to 1 µM.
As for `C=CC(=O)N1CCN(c2nc(OC[C@@H]3CCCN3C)nc3c2CCN(c2cncc4ccccc24)C3)CC1CC#N` (stereo partly drawn) [Example 260, 2-[4-[7-(4-isoquinolyl)-2-[[(2S)-1-methylpyrrolidin-2-yl]methoxy]-6,8-dihydro-5H-pyrido[3,4-d]pyrimidin-4-yl]-1-prop-2-enoyl-piperazin-2-yl]acetonitrile], the half-inhibitory concentration (IC50) was in the range of 0.0001 to 1 µM.
Consider `C=CC(=O)N1CCN(c2nc(OC[C@@H]3CCCN3C)nc3c2CCN(c2cccc4cnccc24)C3)CC1CC#N` (stereo partly drawn) [Example 292, 2-[4-[7-(5-isoquinolyl)-2-[[(2S)-1-methylpyrrolidin-2-yl]methoxy]-6,8-dihydro-5H-pyrido[3,4-d]pyrimidin-4-yl]-1-prop-2-enoyl-piperazin-2-yl]acetonitrile], for which the IC50 is over 1 µM.

For the origin of these results see patent US10689377B2 (Mirati Therapeutics, Inc., priority 2017, dated 2020).
